Data reported in US10960007B2, “Pharmacologically active aryl-substituted pyrazolo[1,5-a]pyrimidine derivatives” (RICHTER GEDEON NYRT., priority 2017, dated 2021).

Key:
[1] = Plasma and brain exposure after USV measurement; format: in vivo; details: rat, per os, about 75 min after treatment
Protocol: (§1) Under stressful conditions, adult rats emit 22 kHz ultrasounds that can be reduced by various pharmacological treatments (De Vry et al, Eur. J. Pharmacol. 1993, 249, 331-339; Sanchez, Eur. J. Pharmacol. 2003, 463, 133-143). […] Therefore, a foot shock-induced vocalization paradigm in adult rats was used to assess in vivo efficacy of centrally acting GABAB receptor ligands. Behavioral measurements were carried out on male Wistar rats (200-250 g, Toxicoop, Hungary). Rats were housed in groups of four in plastic cages with a wire grid top in a temperature and light-controlled laboratory animal care unit (22±2° C., 12-h light/dark cycle, lights on at 6:00 AM) with ad libitum access to commercial pellet rat food and tap water. Investigations were approved by the Local Ethical Committee of Gedeon Richter Plc. and were carried out in strict compliance with the European Directive 2010/63/EU regarding the care and use of laboratory animals for experimental procedures and all efforts were made to minimize the number of animals as well as their suffering. In order to evoke emission of ultrasounds, animals were footshocked after a habituation period of 30 s (6 shocks, 1 s, 0.8 mA each, inter-shock interval 10 s) in a sound attenuated shocking chamber (Experimetria, 40×40×80 cm). […] Vocalizations were measured right after the last footshock for 10 min with a Metris Sonotrack system and the total time of vocalizations was registered. Vocalization of parallel vehicle treated animals was considered as control value and inhibition percent was calculated for each compound. At approximately 75 min after treatment and behavioral measurements, blood and brain samples were harvested in order to determine exposures associated with in vivo activity.

[2] = target: T1, GABAB receptor (Rattus norvegicus, UniProt O88871+Q9Z0U4); test: In vitro [35S]GTPγS binding assay in rat cortical membranes; format: biochemical; details: [35S]GTPγS binding, rat cortical membranes; read-out: In vitro PAM potency (PAM EC50)
T1 construct: from tissue; host or cells: rat brain cortex membranes
T1 sequence (O88871 41-940): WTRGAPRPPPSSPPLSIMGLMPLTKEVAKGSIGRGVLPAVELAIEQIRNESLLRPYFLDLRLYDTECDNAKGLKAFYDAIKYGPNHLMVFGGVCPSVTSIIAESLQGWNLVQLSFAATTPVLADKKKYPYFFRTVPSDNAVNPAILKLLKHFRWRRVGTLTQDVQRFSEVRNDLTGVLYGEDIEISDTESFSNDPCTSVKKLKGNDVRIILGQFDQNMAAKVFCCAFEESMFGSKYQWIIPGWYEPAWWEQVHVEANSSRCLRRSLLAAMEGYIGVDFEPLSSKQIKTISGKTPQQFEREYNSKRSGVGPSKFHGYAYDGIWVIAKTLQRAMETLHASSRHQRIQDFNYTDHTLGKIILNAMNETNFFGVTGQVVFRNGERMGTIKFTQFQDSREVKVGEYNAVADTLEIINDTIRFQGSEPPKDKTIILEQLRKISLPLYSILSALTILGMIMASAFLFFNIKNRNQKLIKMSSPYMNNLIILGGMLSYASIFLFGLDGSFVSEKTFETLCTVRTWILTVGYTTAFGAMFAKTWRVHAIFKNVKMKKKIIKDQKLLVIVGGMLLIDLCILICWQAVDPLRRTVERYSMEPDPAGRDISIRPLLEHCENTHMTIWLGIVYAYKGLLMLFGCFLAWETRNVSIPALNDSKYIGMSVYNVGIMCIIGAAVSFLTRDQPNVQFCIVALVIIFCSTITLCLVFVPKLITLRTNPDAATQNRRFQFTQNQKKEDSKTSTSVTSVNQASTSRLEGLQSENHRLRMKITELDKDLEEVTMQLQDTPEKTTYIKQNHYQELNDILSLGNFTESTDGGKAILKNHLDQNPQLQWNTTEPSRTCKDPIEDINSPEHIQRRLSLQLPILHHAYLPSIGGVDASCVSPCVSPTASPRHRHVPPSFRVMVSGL
T1 sequence (Q9Z0U4 17-960 limits assumed): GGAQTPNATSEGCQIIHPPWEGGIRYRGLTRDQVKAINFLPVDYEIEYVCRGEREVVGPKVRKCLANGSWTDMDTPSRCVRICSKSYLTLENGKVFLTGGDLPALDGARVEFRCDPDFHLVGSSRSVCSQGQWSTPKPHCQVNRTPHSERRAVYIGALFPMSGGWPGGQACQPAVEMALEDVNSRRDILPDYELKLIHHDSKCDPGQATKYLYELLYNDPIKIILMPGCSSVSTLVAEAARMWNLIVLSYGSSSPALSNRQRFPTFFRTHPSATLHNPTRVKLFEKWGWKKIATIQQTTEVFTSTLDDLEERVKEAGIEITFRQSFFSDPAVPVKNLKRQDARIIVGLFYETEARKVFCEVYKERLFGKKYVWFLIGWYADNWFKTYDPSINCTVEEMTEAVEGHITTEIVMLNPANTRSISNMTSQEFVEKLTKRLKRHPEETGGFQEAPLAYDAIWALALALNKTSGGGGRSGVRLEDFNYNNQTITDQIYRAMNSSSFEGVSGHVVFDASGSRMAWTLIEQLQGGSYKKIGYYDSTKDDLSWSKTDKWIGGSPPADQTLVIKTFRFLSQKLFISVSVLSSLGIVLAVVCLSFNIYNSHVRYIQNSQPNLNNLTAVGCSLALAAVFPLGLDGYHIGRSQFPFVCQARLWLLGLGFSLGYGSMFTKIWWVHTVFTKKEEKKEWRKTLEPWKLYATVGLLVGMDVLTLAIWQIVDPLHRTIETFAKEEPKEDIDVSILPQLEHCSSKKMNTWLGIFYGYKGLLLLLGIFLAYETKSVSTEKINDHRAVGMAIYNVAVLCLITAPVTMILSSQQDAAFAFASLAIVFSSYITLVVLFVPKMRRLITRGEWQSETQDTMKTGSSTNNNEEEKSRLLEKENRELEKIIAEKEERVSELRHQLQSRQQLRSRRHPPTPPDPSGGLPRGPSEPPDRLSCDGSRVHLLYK
Protocol: In Vitro [^35S]GTPγS Binding Assay in Rat Cortical Membranes
Cortices of freshly harvested rat brains were dissected on an ice-cold surface and homogenized by a glass Dounce homogeniser immediately in ice-cold buffer containing 50 mM Tris, 5 mM MgCl2 and 1 mM EDTA (pH=7.6). Tissue homogenates were centrifuged at 40000 g for 15 min at 4° C. Membrane pellets were resuspended in the same buffer and membranes were incubated for 10 min at 30° C. in a shaking water bath to eliminate endogenous GABA. Homogenates were centrifuged again under the same conditions. The final pellets were resuspended in ice-cold buffer (pH=7.6) containing 50 mM Tris, 100 mM NaCl, 7 mM MgCl2, 1 mM EDTA and 1 mM dithiotreithol (DTT) to yield a concentration of 20 mg tissue weight/ml and frozen at −70° C. until use. The assay was done in a buffer containing 50 mM Tris (pH=7.4), 100 mM NaCl, 7 mM MgCl2, 1 mM EDTA and 1 mM DTT. Each assay tube contained 150 μL GDP (in a final concentration of 50 μM), 100 μL ligand and 125 μL of the membrane suspension (250 μg tissue/tube). The assay tubes were preincubated for 10 min at 30° C. to assure equilibrium. Nonspecific binding was determined in the presence of 10 μM GTPγS; basal binding was determined in the presence of buffer only. After addition of […] [^35S]GTPγS in a volume of 25 μL to the tubes, membranes were incubated for an additional 60 min at 30° C. The assay was terminated by rapid filtration through Packard UniFilter GF/B using a Packard harvester and washed four times with 1 ml ice-cold buffer. After drying the filters at 40° C. for 1 h, 40 μL Microscint (Packard) was added to the filters and radioactivity of the filters was determined by a TopCount NXT (PerkinElmer, Waltham, Mass.; Alper and Nelson, Eur. J. Pharmacol. 1998, 343, 303-312; Rinken et al, Biochem. Pharmacol. 1999, 57, 155-162). Data thus gathered were used to determine PAM EC50 values for each compound as primary in vitro activity end point.

[3] = system: adult rats; test: Foot shock-induced ultrasonic vocalization (USV) in adult rats; format: in vivo, rat; details: Rattus norvegicus, po; 10 mg/kg per os, 1 h before shocking, male Wistar rats
Protocol: Foot Shock-Induced Ultrasonic Vocalization (USV) in Adult Rats
as §1

Structure (SMILES) | Brain exposure at 1 mg/kg ([1]; formulation Tween) [ng/g] | Plasma exposure at 1 mg/kg ([1]; formulation Tween) [ng/mL] | EC50 [2] [nM] | inhibition in vivo at 10 mg/kg [3] [%] | Brain exposure at 1 mg/kg ([1]; formulation SpD1) [ng/g] | Plasma exposure at 1 mg/kg ([1]; formulation SpD1) [ng/mL]
Cc1nc2cc(-c3ccc(Cl)cc3)nn2c(N2CCCC(C(=O)O)(C(C)C)C2)c1C(C)C (centres unmarked) [Example 3, 1-[2-(4-Chlorophenyl)-5-methyl-6-(propan-2-yl)pyrazolo[1,5-a]pyrimidin-7-yl]-3-(propan-2-yl)piperidine-3-carboxylic acid] | 395 | 358 | 10 to 100 | 58 | – | –
CC[C@]1(C(=O)O)CCCN(c2c(C(C)C)c(C)nc3cc(-c4ccc(Cl)cc4)nn23)C1 [Example 5, (3S)-1-[2-(4-Chlorophenyl)-5-methyl-6-(propan-2-yl)pyrazolo[1,5-a]pyrimidin-7-yl]-3-ethylpiperidine-3-carboxylic acid] | – | – | 10 to 100 | 37 | 857 | 1472
CC[C@]1(C(=O)O)CCCN(c2c(C(C)C)c(C)nc3cc(-c4ccc(C(F)(F)F)cc4)nn23)C1 [Example 6, (3S)-3-Ethyl-1-[5-methyl-6-(propan-2-yl)-2-[4-(trifluoromethyl)phenyl]pyrazolo[1,5-a]pyrimidin-7-yl]piperidine-3-carboxylic acid] | 1326 | 1453 | 10 to 100 | 90 | – | –
CC[C@]1(C(=O)O)CCCN(c2c(C(C)C)c(C)nc3cc(-c4ccc(C(F)(F)F)cc4F)nn23)C1 [Example 7, (3S)-3-Ethyl-1-{2-[2-fluoro-4-(trifluoromethyl)phenyl]-5-methyl-6-(propan-2-yl)pyrazolo[1,5-a]pyrimidin-7-yl}piperidine-3-carboxylic acid] | 332 | 506 | 1 to 10 | 90 | – | –
CC[C@@]1(C(=O)O)CCCN(c2c(C(C)C)c(C)nc3cc(-c4ccc(C(F)(F)F)cc4F)nn23)C1 [Example 8, (3R)-3-Ethyl-1-{2-[2-fluoro-4-(trifluoromethyl)phenyl]-5-methyl-6-(propan-2-yl)pyrazolo[1,5-a]pyrimidin-7-yl}piperidine-3-carboxylic acid] | 1193 | 298 | – | 60 | – | –
Cc1nc2cc(-c3ccc(Cl)cc3)nn2c(N2CCC[C@](C(=O)O)(C(C)C)C2)c1C(C)C [Example 9, (3S)-1-[2-(4-Chlorophenyl)-5-methyl-6-(propan-2-yl)pyrazolo[1,5-a]pyrimidin-7-yl]-3-(propan-2-yl)piperidine-3-carboxylic acid] | – | – | 10 to 100 | 39 | 1849 | 1807
Cc1nc2cc(-c3ccc(C(F)(F)F)cc3)nn2c(N2CCC[C@](C(=O)O)(C(C)C)C2)c1C(C)C [Example 10, (3S)-1-[5-Methyl-6-(propan-2-yl)-2-[4-(trifluoromethyl)phenyl]pyrazolo[1,5-a]pyrimidin-7-yl]-3-(propan-2-yl)piperidine-3-carboxylic acid] | 150 | 36 | 1 to 10 | 30 | – | –
CCC1(C(=O)O)CCCN(c2c(C(C)C)c(C)nc3cc(-c4ccc(Cl)cc4)nn23)C1 (centres unmarked) [Example 20] | – | – | 10 to 100 | – | 1093 | 1275
CC[C@@]1(C(=O)O)CCCN(c2c(C(C)C)c(C)nc3cc(-c4ccc(Cl)cc4)nn23)C1 [Example 21] | – | – | 10 to 100 | – | – | –
Cc1nc2cc(-c3ccc(Cl)cc3)nn2c(N2CCC[C@@](C(=O)O)(C(C)C)C2)c1C(C)C [Example 22] | – | – | 10 to 100 | – | – | –
Cc1nc2cc(-c3ccc(Cl)cc3Cl)nn2c(N2CCC[C@](C(=O)O)(C(C)C)C2)c1C(C)C [Example 45] | – | – | 10 to 100 | – | – | –
Cc1nc2cc(-c3ccc(C(F)(F)F)c(F)c3)nn2c(N2CCC[C@@](C(=O)O)(C(C)C)C2)c1C(C)C [Example 58] | – | – | 10 to 100 | – | – | –
Cc1nc2c(F)c(-c3ccc(Cl)cc3)nn2c(N2CCCC(C(=O)O)C2)c1C(C)C (centres unmarked) [Example 70] | – | – | – | 71 | – | –
